Measured values as given in patent publication US20240140944A1, “NOVEL NAPHTHYRIDINONE DERIVATIVE HAVING INHIBITORY ACTIVITY AGAINST ECTONUCLEOTIDE PYROPHOSPHATASE-PHOSPHODIESTERASE AND USE THEREOF” (TXINNO BIOSCIENCE INC., priority 2020, published 2024).
Counter-ions that a name gives are not always drawn.

Legend:
[1] = molecular target: T1, human recombinant ENPP1 enzymes (Homo sapiens, UniProt P22413); assay: ENPP1 Enzyme Assay with cGAMP Substrate (AMP-Glo); type: biochemical; conditions: human recombinant ENPP1 3 ng/reaction, cGAMP 5 μM, 37° C. 90 minutes, average of two or more tests; read-out: Enzymatic activity IC50
T1 construct: purchased R & D systems
T1 sequence (P22413 1-925): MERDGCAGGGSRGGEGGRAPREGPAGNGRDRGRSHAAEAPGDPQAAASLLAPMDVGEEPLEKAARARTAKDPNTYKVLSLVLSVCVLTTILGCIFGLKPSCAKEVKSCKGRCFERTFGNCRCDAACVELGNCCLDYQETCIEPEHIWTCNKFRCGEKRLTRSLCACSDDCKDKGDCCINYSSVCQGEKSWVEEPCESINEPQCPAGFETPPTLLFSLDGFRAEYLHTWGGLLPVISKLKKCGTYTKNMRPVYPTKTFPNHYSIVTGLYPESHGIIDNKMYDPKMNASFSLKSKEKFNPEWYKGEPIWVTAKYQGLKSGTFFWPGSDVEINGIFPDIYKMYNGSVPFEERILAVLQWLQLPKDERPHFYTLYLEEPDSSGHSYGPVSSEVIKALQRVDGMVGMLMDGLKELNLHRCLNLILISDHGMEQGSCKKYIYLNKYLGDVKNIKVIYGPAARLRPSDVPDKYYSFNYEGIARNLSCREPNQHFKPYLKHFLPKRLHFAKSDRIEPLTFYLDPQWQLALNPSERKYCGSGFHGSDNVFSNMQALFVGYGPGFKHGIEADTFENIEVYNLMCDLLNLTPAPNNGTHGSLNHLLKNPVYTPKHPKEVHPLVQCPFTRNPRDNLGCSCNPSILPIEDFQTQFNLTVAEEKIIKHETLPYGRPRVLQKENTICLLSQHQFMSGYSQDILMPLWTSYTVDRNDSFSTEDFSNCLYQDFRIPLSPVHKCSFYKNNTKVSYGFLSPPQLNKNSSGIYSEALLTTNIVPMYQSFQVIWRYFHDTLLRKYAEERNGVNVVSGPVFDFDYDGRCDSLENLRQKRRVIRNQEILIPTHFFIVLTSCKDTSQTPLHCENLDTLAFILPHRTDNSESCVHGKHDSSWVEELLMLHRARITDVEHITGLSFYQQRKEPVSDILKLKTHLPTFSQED
Experimental: ENPP1 hydrolyzes nucleotides or nucleotide derivatives to produce nucleoside-5′-monophosphate and pyrophosphate. In addition, ENPP1 hydrolyzes 2′,3′-cGAMP to produce 5′-adenosine monophosphate (AMP) and 5′-guanosine monophosphate (GMP). AMP produced from the reaction is measured using the AMP-Glo® kit (Promega). The AMP-Glo® kit contains two reagents. The first reagent terminates the AMP-producing enzymatic reaction, removes ATP and converts the produced AMP into ADP. The second reagent converts ADP to ATP which is used to generate luminescence in the luciferase reaction. The amount of luminescence measured is proportional to the amount of AMP produced by ENPP1.
The final reaction mixture contains 50 mM Tris (pH 8.5) buffer, 250 mM NaCl, 0.5 mM CaCl2), 1 μM ZnCl2, 5% glycerol and 1% DMSO. Serially diluted ENPP1 inhibitors (typically in the range of 10 μM to 0.5 nM) were pre-stored with human recombinant ENPP1 enzymes (R & D systems) at 3 ng/reaction and room temperature (RT) for 5 to 10 minutes. The reaction was initiated by addition of cGAMP (at a final concentration of 5 μM) and reacted at 37° C. for 90 minutes. At the end of the reaction, 10 μl of the AMP-Glo first reagent was added to stop the reaction and the result was stored at room temperature for 1 hour. After storage, 20 μl of an AMP detection solution (a mixture of AMP-Glo II reagent and Kinase-Glo at a ratio of 1:100) was added and stored at room temperature for 1 hour. Luminescence signals were measured using a Victor® plate reader (Perkin Elmer). The maximal activity control (containing enzymes and substrates in the presence of 1% DMSO; MAX) and the minimal activity control (containing substrates and 1% DMSO; MIN) were evaluated simultaneously. In each experiment, serially diluted reference ENPP1 inhibitors were tested as well. IC50, indicating % residual activity versus compound concentration was determined by fitting inhibition curves using the 3-parameter analysis of GraphPad Prism® software. Serially diluted samples of one compound were tested two or more times and an average IC50 of each compound was calculated.

[2] = tested on: interferon regulatory factor 3 (IRF3) in HCT116-Dual cells; assay: HCT116-Dual Cell Luciferase Assay (ISG54 promoter, IRF3 activity); type: cell-based; conditions: ENPP1 inhibitor usually 10 μM plus cGAMP 10 μM, 48 hours, Lucia luciferase
From the text: HCT116-Dual™ cells express genes encoding luciferase secreted under the control of the interferon-stimulated gene 54 (ISG54) promoter along with five interferon-stimulated response elements. The HCT116-Dual™ cell line was used to measure and monitor the activity of interferon regulatory factor 3 (IRF3), which induces production of type I interferon and relates to downstream signaling, and Lucia secreted in the culture medium was used to generate luminescence in a luciferase reaction.
HCT116-Dual™ cells were cultured at 2×10^4 cells/well (93.4 μL) in a 96-well plate for one day in a DMEM medium containing 10% FBS and 25 mM HEPES (pH 7.2-7.5). The cells were treated with 3.3 μL of ENPP1 inhibitor (usually 10 μM) and then 3.3 μL of cGAMP (10 μM) to set the final volume to 100 μL (The final fraction of DMSO was 0.1%). The cells treated with ENPP1 inhibitor and cGAMP were cultured at 37° C. for 48 hours and 50 μL of Quanti-Luc reaction solution was added to 20 μL of cell culture medium to measure luciferase activity. The increase in interferon regulatory factor 3 (IRF3) by the compound compared to cGAMP was determined as fold.

Compound | IC50 [1] [nM] | Cellular activity: increase in IRF3 by the compound compared to cGAMP, as fold [2]
Cl.O=c1ccc2c(-c3ccc(CNC4CC4)cc3F)ccnc2[nH]1 [Example 22, 5-(4-((cyclopropylamino)methyl)-2-fluorophenyl)-1,8-naphthyridin-2(1H)-one hydrochloride] | 1000 to 10000 | B (1< Fold <2)
NS(=O)(=O)N1CCc2ccc(Nc3ccnc4[nH]c(=O)ccc34)cc2C1 [Example 102, 7-((7-oxo-7,8-dihydro-1,8-naphthyridin-4-yl)amino)-3,4-dihydroisoquinolin-2(1H)-yl)sulfamide dihydrochloride] | < 1000 | A (>2)
CC(NS(N)(=O)=O)c1ccc(-c2ccnc3[nH]c(=O)ccc23)cc1.Cl (centres unmarked) [Example 45, N-(1-(4-(7-oxo-7,8-dihydro-1,8-naphthyridin-4-yl)phenyl)ethyl)sulfamide hydrochloride] | < 1000 | B (1< Fold <2)
CCN(Cc1ccc(-c2ccnc3[nH]c(=O)ccc23)cc1F)S(N)(=O)=O.Cl [Example 53, N-ethyl-N-(2-fluoro-4-(7-oxo-7,8-dihydro-1,8-naphthyridin-4-yl)benzyl)sulfamide hydrochloride] | < 1000 | B (1< Fold <2)
Cl.Nc1ccc(F)c(-c2ccnc3[nH]c(=O)ccc23)c1 [Example 8] | – | B (1< Fold <2)
NS(=O)(=O)NCc1ccc(-c2ccnc3[nH]c(=O)ccc23)cc1F [Example 41, N-(2-fluoro-4-(7-oxo-7,8-dihydro-1,8-naphthyridin-4-yl)benzyl)sulfamide] | – | B (1< Fold <2)
5-(7-oxo-5,6,7,8-tetrahydro-1,8-naphthyridin-4-yl)isoindoline-2-sulfamide hydrochloride [Example 143] | – | B (1< Fold <2)
NCc1ccc(Nc2ccnc3[nH]c(=O)ccc23)cc1 [Example 82, 5-((4-(aminomethyl)phenyl)amino)-1,8-naphthyridin-2(1H)-one dihydrochloride] | < 1000 | –
CC(C)N(Cc1ccc(-c2ccnc3[nH]c(=O)ccc23)c(F)c1)S(N)(=O)=O [Example 57, N-(3-fluoro-4-(7-oxo-7,8-dihydro-1,8-naphthyridin-4-yl)benzyl)-N-isopropyl)sulfamide hydrochloride] | > 10000 | –
NCc1cccc(-c2ccnc3[nH]c(=O)ccc23)c1 [Example 7, 5-(3-(aminomethyl)phenyl)-1,8-naphthyridin-2(1H)-one hydrochloride] | < 1000 | –

Now from value to compound, other results behind:

IC50 [1] [nM] | Compound | Cellular activity: increase in IRF3 by the compound compared to cGAMP, as fold [2]
< 1000 | NS(=O)(=O)NCc1cc(-c2ccnc3[nH]c(=O)ccc23)ccc1F [Example 38, N-(2-fluoro-5-(7-oxo-7,8-dihydro-1,8-naphthyridin-4-yl)benzyl)sulfamide hydrochloride] | B (1< Fold <2)
< 1000 | NS(=O)(=O)NCc1ccc(-c2ccnc3[nH]c(=O)ccc23)c(F)c1 [Example 42, N-(3-fluoro-4-(7-oxo-7,8-dihydro-1,8-naphthyridin-4-yl)benzyl)sulfamide hydrochloride] | A (>2)
< 1000 | CN(CCc1cccc(Nc2ccnc3[nH]c(=O)ccc23)c1)S(N)(=O)=O [Example 93, N-methyl-N-(3-((7-oxo-7,8-dihydro-1,8-naphthyridin-4-yl)amino)phenethyl)sulfamide dihydrochloride] | B (1< Fold <2)
< 1000 | NS(=O)(=O)Nc1cccc(-c2ccnc3[nH]c(=O)ccc23)c1 [Example 35, N-(3-(7-oxo-7,8-dihydro-1,8-naphthyridin-4-yl)phenyl)sulfamide hydrochloride] | B (1< Fold <2)
< 1000 | NS(=O)(=O)N1Cc2ccc(-c3ccnc4[nH]c(=O)ccc34)cc2C1 [Example 64, 5-(7-oxo-7,8-dihydro-1,8-naphthyridin-4-yl)isoindolin-2-yl)sulfamide hydrochloride] | B (1< Fold <2)
> 10000 | CN(c1ccc2c(c1)CN(S(N)(=O)=O)CC2)c1ccnc2[nH]c(=O)ccc12 [Example 108, (7-(methyl(7-oxo-7,8-dihydro-1,8-naphthyridin-4-yl)amino)-3,4-dihydroisoquinolin-2(1H)-yl)sulfamide dihydrochloride] | –
< 1000 | NS(=O)(=O)NCCc1cccc(Nc2ccnc3[nH]c(=O)ccc23)c1 [Example 92, N-(3-((7-oxo-7,8-dihydro-1,8-naphthyridin-4-yl)amino)phenethyl)sulfamide dihydrochloride] | –
> 10000 | O=C1CCc2c(-c3ccc4c(c3)CNCC4)ccnc2N1 [Example 135, 5-(1,2,3,4-tetrahydroisoquinolin-7-yl)-3,4-dihydro-1,8-naphthyridin-2(1H)-one hydrochloride] | –
1000 to 10000 | O=c1ccc2c(Nc3cc4c(cc3F)CNCC4)ccnc2[nH]1 [Example 86, 5-((7-fluoro-1,2,3,4-tetrahydroisoquinolin-6-yl)amino)-1,8-naphthyridin-2(1H)-one dihydrochloride] | –
< 1000 | NS(=O)(=O)NCCc1ccc(F)c(Nc2ccnc3[nH]c(=O)ccc23)c1 [Example 95, N-(4-fluoro-3-((7-oxo-7,8-dihydro-1,8-naphthyridin-4-yl)amino)phenethyl)sulfamide dihydrochloride] | –
1000 to 10000 | O=c1ccc2c(-c3ccc(CNS(=O)(=O)C4CC4)cc3)ccnc2[nH]1 [Example 71, N-(4-(7-oxo-7,8-dihydro-1,8-naphthyridin-4-yl)benzyl)cyclopropanesulfonamide] | –
1000 to 10000 | NS(=O)(=O)N1CCCc2ccc(Nc3ccnc4[nH]c(=O)ccc34)cc2C1 [Example 103, (8-((7-oxo-7,8-dihydro-1,8-naphthyridin-4-yl)amino)-1,3,4,5-tetrahydro-2 (1H)-benzo[c]azepin-2-yl)sulfamide dihydrochloride] | –
1000 to 10000 | CC(C)(C)OC(=O)NS(=O)(=O)N1CCc2ccc(-c3ccnc4c3CCC(=O)N4)cc2C1 [Example 138, tert-butyl((7-(7-oxo-5,6,7,8-tetrahydro-1,8-naphthyridin-4-yl)-3,4-diisoquinoline-2(1H)-yl)sulfonyl)carbamate] | –
